Results on 4 substances are retold here after patent publication US6462184B2, “Compounds, processes and intermediates for synthesis of mixed backbone oligomeric compounds” (ISIS Pharmaceuticals, Inc., priority 1999, dated 2002).

One data set deals with ICAM-1. Nature of the data set: ICAM-1 expression in HUVEC cells (flow cytometry). Type of data set: cell-based, human. The method, then:
Targeted oligomeric compounds were prepared and assayed using HUVEC cells to determine their ability to inhibit the expression of ICAM-1. HUVEC cells were washed three times with Opti-MEM (Life Technologies, Inc.) that was prewarmed to 37° C. Oligomeric compounds were premixed with Lipofectin (10 μg/mL, Life Technologies, Inc.) in Opti-MEM, serially diluted to the desired concentrations, and applied to washed cells. Basal and untreated (no oligomeric compounds added) control cells were also treated with Lipofectin. Cells were incubated for 4 hours at 37° C., at which time the medium was removed and replaced with standard growth medium with or without TNF-a ([…], R&D Systems). Incubation at 37° C. was continued for different times as indicated below.
A fluorescence-activated cell sorter was used to quantitate ICAM-1 protein expression. The cells were removed from the plate surface by brief trypsinization with trypsin (0.25%) in PBS. Trypsin activity was quenched with a solution of bovine serum albumin (2%) and sodium azide (0.2%) in PBS (+Mg/Ca). […]
Expression of cell surface ICAM-1 was determined by flow cytometry using a Becton Dickinson FACScan. The percentage of ICAM-1 expression in the control was calculated as follows: [(oligomeric compound-treated ICAM-1 value)−(basal ICAM-1 value)/(non-treated ICAM-1 value)−(basal ICAM-1 value))].
Background: A flow cytometer gives signals particle by particle.

A further data set has as its system c-raf mRNA. The experiment in a line: c-raf mRNA expression in A549 cells. Type of data set: cell-based, human. The conditions noted are these: between 50-400 nM range. The method, then:
Gapmers designed in this study are based on the parent sequence of ATGCATTCTGCCCCCAAGGA (SEQ ID No:9) which is a uniform deoxy phosphorothioate. This sequence is an antisense oligomeric compound targeted to mouse c-raf. c-raf m-RNA expression assay was carried out according to a reported procedure (Monia et al., Nature Medicinek, 1996, 2, 668). Human A549 lung carcinoma cells were obtained from the American Type Tissue Collection. These were grown in Dulbecco's modified Eagle's medium containing 1 g of glucose/liter (DMEM) and FCS (10%) and routinely passaged when 90-95% confluent.
Assay for Oligonucleoside Inhibition of c-raf Protein Synthesis: A549 cells were plated in 6-well plates (Falcon Labware, Lincoln Park, N.J.) and 24-48 hours later (when 80-90% confluent) treated with 1 μM phorbol 12,13-dibutyrate (PDBu) for 18 hours. This procedure removes greater than 75% of immunoreactive c-rafprotein from the cells. Cells were then washed three times with DMEM (3 mL) (to remove PDBu), and DMEM (1 mL) containing DOTMA/DOPE solution (20 μg/mL, LipofectinR, Bethesda Research Laboratories) was added. Oligonucleoside gapmers were then added to the required concentration (for our initial screen, 1 μM) from a 10 μM stock solution, and the two solutions were mixed by swirling of the dish. The cells were incubated at 37° C. for 4 hours, washed once with DMEM+FCS (10%) to remove the DOTMA/DOPE solution, and then additional DMEM (3 mL)+10% FCS was added and the cells were allowed to recover for another 10 hours. Total RNA is prepared 24 hours after the experiment and analyzed for c-raf and G3PDH mRNA levels after normalization to G3PDH mRNA.

[PN] = dimethylaminoethyl (DMAE) phosphoramidate internucleoside linkage; e = 2'-O-(2-methoxyethyl) (MOE); d = 2'-deoxy (DNA)

“A*NT*NG* C*A*T*S TSCSTS GSCSCS CSCSC* A*A*G*N G*NA* (antisense ATGCATTCTGCCCCCAAGGA; 2'-MOE gapmer, mixed PN/PO/PS backbone, chemistry not fully specified) [SEQ ID No 11, 2'-MOE gapmer with PN-PO-PS-PO-PN mixed backbone, 20-mer]”: the “controlling ICAM-1 expression” value with ICAM-1 (HUVEC cells (printed HWEC), compound synthesized by amidite chemistry and same compound by H-phosphonate chemistry) is given as “efficacious”. Also, in the data set with ICAM-1 (between 3 and 100 nM range, both compounds synthesized from different chemistries), the “inhibiting ICAM-1 expression” value is listed as “display dose response”. As for “A*T*G* C*A*T*S TSCSTS GSCSCS CSCSC* A*A*G* G*A* (antisense ATGCATTCTGCCCCCAAGGA; 2'-MOE gapmer with mixed PO/PS backbone, marks not given here, further chemistry not given here) [SEQ ID No 9, 2'-MOE gapmer with PO-PS-PO mixed backbone, 20-mer, antisense to c-raf]”, the “c-raf mRNA expression inhibition” value with c-raf mRNA is reported as “dose dependent manner”. On the same count and under the same terms, for “T*NT*NT*S GSASCS ASCSGS GSCSAS CSCSAS T*ST*NT*N T* (antisense TTTGACACGGCACCATTTT; sugars from the 5' end e3 d12 e4, linkages [PN]2 s14 [PN]2 (s phosphorothioate, o phosphodiester), methylation of C not given here) [SEQ ID No 4, 2'-MOE gapmer with PN-PS-PN mixed backbone, 19-mer]” the value was “dose dependent manner”; for “A*NT*NG* C*A*T*S TSCSTS GSCSCS CSCSC* A*A*G* G*A* (antisense ATGCATTCTGCCCCCAAGGA; sugars from the 5' end e6 d8 e6, linkages [PN]2 o3 s9 o5 (s phosphorothioate, o phosphodiester), methylation of C not given here) [SEQ ID No 10, 2'-MOE gapmer with PN-PO-PS-PO mixed backbone, 20-mer]”, “dose dependent manner”.
